According to patent US10472686B2, “Mechanisms of antimicrobial susceptibility” (Roche Molecular Systems, Inc., priority 2015, dated 2019):

Key:
KPC-expressing E. coli [1] = experiment: Smarticles live cell luminescence assay with inhibitors (Example 4); type: cell-based; conditions: clinical isolates
Procedure: (§1) Thus, the ability to quickly detect viable Gram-negative bacteria, determine their susceptibility to carbapenems, and distinguish between carbapenem resistance mechanisms could aid physicians in considering such therapeutic options in the future. […] In this study, a Smarticles™ assay was evaluated for its ability to detect carbapenem resistant E. coli and distinguish between NDM-1 and KPC-expressing organisms.
(§2) Methods: 26 clinical isolates of E. coli, Klebsiella spp., Enterobacter spp., Citrobacter spp., Proteus spp., and S. marcescens were evaluated using the Smarticles™ assay and ertapenem disk diffusion. CRE isolates included organisms expressing blaKPC and blaNDM-1. The Smarticles™ assay was used with the addition of the chelating agent edetic acid (EDTA) and β-lactamase inhibitor boronic acid to scrutinize clinical isolates of E. coli expressing NDM-1 and KPC.

NDM-1-expressing E. coli [2] = experiment: NRTP luciferase live cell reporter assay, NDM-1 detection (Example 1); type: cell-based; conditions: 2 hours at 37° C.; for luminescence signal (% RLU normalized to No Antibiotic): FIG. 2
Procedure: An NDM-1 detection assay is produced using a luciferase-expressing non-replicative transduction particle specific to Enterobacteriaceae (as described in PCT/US2014/026536, Example 1), ertapenem, and the chelator Ethylenediaminetetraacetic acid (EDTA).
A culture of a clinical isolate of an NDM-1-expressing E. coli was prepared in LB media and used to determine the response of the NRTP reporter in the presence of ertapenem, EDTA, and Zinc. The assay was prepared by mixing 50 μL of the cell culture at an OD600 of 0.02 to 50 μL of LB media and 100 μL of NRTP reagent prepared in a microwell plate. The assay was incubated for 2 hours at 37° C. under the following conditions: (1) No additives, (2) with the addition of ertapenem at 0.25 μg/mL, (3) with the addition of ertapenem and EDTA at 750 μg/mL, and (4) with the addition of ertapenem and Zinc sulfate at 70 μg/mL. After the incubation, the samples were assayed for luminescence after the injection of a nonanal reagent as a substrate for the live cell reporter using a Molecular Devices SpectraMax L luminometer.
The luminescence readings were then normalized to those produced by sample (1) and plotted as a percentage relative to sample (1) as shown in FIG. 2.

NDM-1-expressing E. coli [3] = type: cell-based; conditions: Smarticles assay, clinical isolates
Procedure: as §1, §2

[4] = test system: Class B carbapenemases (e.g. NDM-1); conditions: background statement; cited from earlier work
[5] = test system: Class A carbapenemases (e.g. KPC); conditions: background statement; cited from earlier work
KPC-expressing E. coli [6] = experiment: NRTP luciferase live cell reporter assay, KPC detection (Example 2); type: cell-based; conditions: 2 hours at 37° C.
Procedure: In another embodiment of the invention, a KPC detection assay is produced using a luciferase-expressing non-replicative transduction particle specific to Enterobacteriaceae as described in PCT/US2014/026536, Example 1, ertapenem and the β-lactamase inhibitor boronic acid.
A culture of a clinical isolate of a KPC-expressing E. coli was prepared in LB media and used to determine the response of the NRTP reporter in the presence of ertapenem, and boronic acid. The replicates of the assay were prepared mixing 50 μL of the cell culture at an OD600 of 0.02 to 50 μL of LB media and 100 μL of NRTP reagent prepared in a microwell plate. The assay was incubated for 2 hours at 37° C. under the following conditions: (1) No additives, (2) with the addition of ertapenem at 1 μg/mL, and (3) with the addition of ertapenem and phenyl boronic acid 400 μg/mL. After the incubation, the samples were assayed for luminescence after the injection of a nonanal reagent as a substrate for the live cell reporter using a Molecular Devices SpectraMax L luminometer.
The luminescence readings were then normalized to those produced by sample (1) and plotted as the average percentage relative to sample (1) as shown in FIG. 1.

With `O=C(O)CN(CCN(CC(=O)O)CC(=O)O)CC(=O)O` [EDTA, Ethylenediaminetetraacetic acid] the “assay signal in the presence of the inhibitor” value (shortened to “assay signal … of the inhibitor”) (KPC-expressing E. coli [1]) was “not inhibited”, the “luminescence signal (% RLU normalized to No Antibiotic)” value (NDM-1-expressing E. coli [2]; ertapenem 0.25 μg/mL and EDTA 750 μg/mL) was “significantly decreased” and the “assay signal … of the inhibitor” value (NDM-1-expressing E. coli [3]) was “inhibited”.
For `O=S(=O)([O-])[O-].[Zn+2]` [Zinc, Zinc sulfate], the “luminescence signal (% RLU normalized to No Antibiotic)” value (NDM-1-expressing E. coli [2]; ertapenem 0.25 μg/mL and Zinc sulfate 70 μg/mL) was “significantly increased”.
In the case of `O=C(NC1CCNCC1)[C@@H]1CC[C@@H]2CN1C(=O)N2OS(=O)(=O)O` [Relebactam], the “activity against Class B carbapenemases” value [4] is given as “not against” and the “activity against Class A carbapenemases” value [5] is given as “shown activity”.
For `OB(O)c1ccccc1` [boronic acid, phenyl boronic acid], the “assay signal … of the inhibitor” value (KPC-expressing E. coli [1]) was “inhibited”, the “luminescence signal (% RLU normalized to No Antibiotic)” value (KPC-expressing E. coli [6]; ertapenem 1 μg/mL and phenyl boronic acid 400 μg/mL) was “significantly decreased” and the “assay signal … of the inhibitor” value (NDM-1-expressing E. coli [3]) was “not inhibited”.
In the case of `C[C@@H](O)[C@H]1C(=O)N2C(C(=O)O)=C(S[C@@H]3CN[C@H](C(=O)Nc4cccc(C(=O)O)c4)C3)[C@H](C)[C@H]12` [ertapenem], the “luminescence signal (% RLU normalized to No Antibiotic)” value (KPC-expressing E. coli [6]; ertapenem 1 μg/mL alone) is reported as “not significantly decreased”, the susceptibility phenotype (KPC-expressing E. coli [6]; ertapenem 1 μg/mL) is reported as “non-susceptible” and the “luminescence signal (% RLU normalized to No Antibiotic)” value (NDM-1-expressing E. coli [2]; ertapenem 0.25 μg/mL alone) is reported as “not significantly decreased”. The susceptibility phenotype (NDM-1-expressing E. coli [2]; ertapenem 0.25 μg/mL) was “non-susceptible”.
